Read-outs that look alike come from different tables or passages of the source.
Key:
[1] = target: CDK2/Cyclin E1 complex (Homo sapiens, UniProt P24941); test: CDK2 inhibition assay (Caliper/LabChip EZ Reader kinase assay); type: biochemical
Procedure: (§1) Compounds of the invention were assayed for inhibition of CDK7, CDK9, CDK12, and CDK2 activity at Biortus Biosciences (Jiangyin, Jiangsu Province, P.R. of China) using kinase assays for each CDK developed with a Caliper/LabChip EZ Reader (Perkin Elmer, Waltham, MA).
(§2) Furthermore, the CDK9 inhibition assay used CDK9/Cyclin T1 complex (8 nM) and “5-FAM-CDK9tide” peptide substrate (2 μM, synthesized fluorophore-labeled peptide with the following sequence: 5-FAM-GSRTPMY-NH2 where 5-FAM is defined above and NH2 signifies a C-terminal amide) with 10 mM MgCl2 in the buffer composition listed above. […] Additionally, the CDK2 inhibition assay used CDK2/Cyclin E1 complex (0.5 nM) and “5-FAM-CDK7tide” ([…]) as defined above, with 2 mM MgCl2 in the buffer composition listed above.

[2] = tested on: A673 cells; test: Inhibition of proliferation of A673 cells (CyQUANT, 72 hour); type: cell-based, human
Procedure: A673 cells are a cell line derived from human […] Ewing's sarcoma. Representative compounds of the invention were tested at different concentrations (from […]; 0.5 log serial dilutions) for their ability to inhibit the proliferation of A673 cells. Known CDK inhibitors dinaciclib or N-((1S,3R)-3-((5-chloro-4-(1H-indol-3-yl)pyrimidin-2-yl)amino)cyclohexyl)-5-((E)-4-(dimethylamino)but-2-enamido)picolinamide and triptolide were used as positive controls. Cells were grown in Dulbecco's Modified Eagle's Medium, +10% FBS+1 mM Sodium Pyruvate. The cells were cultured at 37° C. in a humidified chamber in the presence of 5% CO2. Proliferation assays were conducted over a 72 hour time period. CyQUANT® (Life Technologies, Chicago, IL USA) was used to assess the anti-proliferative effects of the compounds following manufacturer's directions and utilizing the reagents supplied with the CyQUANT® kit.

[3] = target: CDK9/Cyclin T1 complex (Homo sapiens, UniProt P50750); test: CDK9 inhibition assay (Caliper/LabChip EZ Reader kinase assay); type: biochemical
CDK9/Cyclin T1 complex, sequence (P50750 whole entry, species assumed): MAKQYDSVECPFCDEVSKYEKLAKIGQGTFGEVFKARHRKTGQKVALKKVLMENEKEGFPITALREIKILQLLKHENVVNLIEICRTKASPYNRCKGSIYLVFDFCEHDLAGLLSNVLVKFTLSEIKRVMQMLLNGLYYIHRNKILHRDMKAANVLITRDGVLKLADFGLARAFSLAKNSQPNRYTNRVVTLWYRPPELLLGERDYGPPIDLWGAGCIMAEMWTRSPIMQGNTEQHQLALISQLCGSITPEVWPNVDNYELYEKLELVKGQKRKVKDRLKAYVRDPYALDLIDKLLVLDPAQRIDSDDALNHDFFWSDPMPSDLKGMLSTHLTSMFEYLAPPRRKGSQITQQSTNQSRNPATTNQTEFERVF
CDK9/Cyclin T1 complex, sequence (O60563 whole entry partner, species assumed): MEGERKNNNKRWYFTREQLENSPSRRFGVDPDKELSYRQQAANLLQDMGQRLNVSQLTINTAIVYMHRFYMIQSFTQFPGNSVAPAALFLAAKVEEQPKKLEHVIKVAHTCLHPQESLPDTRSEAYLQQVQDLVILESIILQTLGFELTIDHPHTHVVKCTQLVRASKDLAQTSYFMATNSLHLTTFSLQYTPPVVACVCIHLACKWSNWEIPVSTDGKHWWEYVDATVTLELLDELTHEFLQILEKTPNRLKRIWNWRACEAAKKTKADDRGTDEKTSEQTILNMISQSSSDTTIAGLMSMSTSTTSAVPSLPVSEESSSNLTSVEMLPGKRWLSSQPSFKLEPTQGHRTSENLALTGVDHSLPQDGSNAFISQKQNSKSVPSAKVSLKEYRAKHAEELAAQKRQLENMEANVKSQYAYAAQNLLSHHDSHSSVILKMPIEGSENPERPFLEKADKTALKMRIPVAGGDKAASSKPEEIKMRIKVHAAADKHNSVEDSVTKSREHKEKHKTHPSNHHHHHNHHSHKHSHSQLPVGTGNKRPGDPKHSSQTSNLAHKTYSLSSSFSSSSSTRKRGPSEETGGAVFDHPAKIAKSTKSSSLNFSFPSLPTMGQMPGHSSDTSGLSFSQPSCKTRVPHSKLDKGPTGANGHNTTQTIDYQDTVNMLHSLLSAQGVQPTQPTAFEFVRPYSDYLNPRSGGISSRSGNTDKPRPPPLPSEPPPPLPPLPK
Procedure: as §1, §2

[4] = target: CDK7/Cyclin H/MAT1 complex (Homo sapiens, UniProt P50613); test: CDK7 inhibition assay (Caliper/LabChip EZ Reader kinase assay); type: biochemical
CDK7/Cyclin H/MAT1 complex, sequence (P50613 whole entry, species assumed): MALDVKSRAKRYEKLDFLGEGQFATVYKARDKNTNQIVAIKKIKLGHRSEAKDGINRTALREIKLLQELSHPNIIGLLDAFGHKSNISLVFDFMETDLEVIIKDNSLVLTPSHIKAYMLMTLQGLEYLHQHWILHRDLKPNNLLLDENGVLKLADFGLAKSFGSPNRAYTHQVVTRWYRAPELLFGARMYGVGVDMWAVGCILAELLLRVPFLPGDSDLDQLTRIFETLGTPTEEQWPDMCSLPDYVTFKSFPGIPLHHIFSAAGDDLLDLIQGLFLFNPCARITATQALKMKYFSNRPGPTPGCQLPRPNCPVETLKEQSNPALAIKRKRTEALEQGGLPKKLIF
CDK7/Cyclin H/MAT1 complex, sequence (P51946 whole entry partner, species assumed): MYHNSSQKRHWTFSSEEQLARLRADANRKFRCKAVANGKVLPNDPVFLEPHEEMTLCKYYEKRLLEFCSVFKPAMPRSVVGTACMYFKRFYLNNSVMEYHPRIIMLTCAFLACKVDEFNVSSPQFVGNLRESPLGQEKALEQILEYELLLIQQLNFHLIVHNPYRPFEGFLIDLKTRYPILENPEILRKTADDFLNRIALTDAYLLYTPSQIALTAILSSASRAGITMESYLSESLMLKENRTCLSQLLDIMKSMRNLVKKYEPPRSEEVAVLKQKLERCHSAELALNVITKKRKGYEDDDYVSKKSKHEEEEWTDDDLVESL
CDK7/Cyclin H/MAT1 complex, sequence (P51948 whole entry partner, species assumed): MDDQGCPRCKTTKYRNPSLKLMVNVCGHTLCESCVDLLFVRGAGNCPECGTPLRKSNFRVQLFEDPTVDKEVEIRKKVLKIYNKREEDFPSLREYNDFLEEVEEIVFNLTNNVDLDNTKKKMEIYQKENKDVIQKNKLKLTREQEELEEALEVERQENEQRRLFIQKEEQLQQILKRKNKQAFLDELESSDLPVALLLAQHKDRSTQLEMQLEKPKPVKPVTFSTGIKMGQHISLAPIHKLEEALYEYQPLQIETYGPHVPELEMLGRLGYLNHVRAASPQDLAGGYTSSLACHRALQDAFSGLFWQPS
Procedure: as §1, §2

[5] = target: T1, CDK12 (aa686-1082)/Cyclin K complex (Homo sapiens, UniProt Q9NYV4); test: CDK12 inhibition assay (Caliper/LabChip EZ Reader kinase assay); type: biochemical; settings: Table 1; CDK12 (aa686-1082)/Cyclin K 50 nM, ATP 2 mM, 3 hr at 27° C.
T1 construct: CDK12 (aa686-1082)/Cyclin K complex
T1 sequence (Q9NYV4 686-1082, species assumed): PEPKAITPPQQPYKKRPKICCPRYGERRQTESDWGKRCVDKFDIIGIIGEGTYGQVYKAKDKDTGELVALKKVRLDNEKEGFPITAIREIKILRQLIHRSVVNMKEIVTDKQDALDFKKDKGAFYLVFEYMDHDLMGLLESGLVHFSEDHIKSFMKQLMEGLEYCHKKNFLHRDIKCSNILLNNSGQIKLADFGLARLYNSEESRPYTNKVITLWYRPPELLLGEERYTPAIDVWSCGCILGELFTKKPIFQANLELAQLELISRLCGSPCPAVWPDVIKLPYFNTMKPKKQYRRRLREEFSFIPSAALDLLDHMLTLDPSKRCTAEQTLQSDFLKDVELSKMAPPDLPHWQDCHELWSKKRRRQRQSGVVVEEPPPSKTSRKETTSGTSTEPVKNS
T1 sequence (O75909 whole entry partner, species assumed, the tested form may be a part): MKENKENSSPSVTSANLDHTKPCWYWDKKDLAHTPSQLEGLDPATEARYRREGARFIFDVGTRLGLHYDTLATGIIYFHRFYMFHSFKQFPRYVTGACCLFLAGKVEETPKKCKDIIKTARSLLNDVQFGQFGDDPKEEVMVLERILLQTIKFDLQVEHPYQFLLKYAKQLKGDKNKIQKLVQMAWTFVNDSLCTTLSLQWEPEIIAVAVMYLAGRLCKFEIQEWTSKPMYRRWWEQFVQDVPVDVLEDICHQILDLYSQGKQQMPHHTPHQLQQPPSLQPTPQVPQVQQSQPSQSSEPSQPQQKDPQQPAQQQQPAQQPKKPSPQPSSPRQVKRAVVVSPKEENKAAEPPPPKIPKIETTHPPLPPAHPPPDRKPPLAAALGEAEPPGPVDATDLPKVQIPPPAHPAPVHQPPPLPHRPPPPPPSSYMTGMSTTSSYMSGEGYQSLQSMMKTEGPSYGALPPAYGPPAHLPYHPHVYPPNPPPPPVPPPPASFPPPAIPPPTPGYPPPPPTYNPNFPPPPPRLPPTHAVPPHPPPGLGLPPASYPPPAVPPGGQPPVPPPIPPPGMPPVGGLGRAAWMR
Procedure: as §1, §2

[6] = Table 3, comparison with structural analogs
[7] = Homo sapiens, A673, 72 h, Table 3, comparison with structural analogs, 72 hour proliferation, read-out: A673 Cells
[8] = Table 1, CDK2/Cyclin E1 0.5 nM, ATP 2 mM, 35 min at 27° C.
[9] = Homo sapiens, A673, 72 h, A673 cells, 72 hour, CyQUANT, read-out: Inhibition of Proliferation of A673 Cells (calculated IC50)
[10] = Table 1, CDK9/Cyclin T1 8 nM, ATP 2 mM, 15 min at 27° C.
[11] = Table 1, CDK7/Cyclin H/MAT1 6 nM, ATP 2 mM, 35 min at 27° C.
[12] = A673 cells, 72 hour, CyQUANT, read-out: Inhibition of Proliferation of A673 Cells (calculated IC50)

SMILES | IC50 [1, 6] | IC50 [3, 6] | IC50 [4, 6] | IC50 [1, 8] | IC50 [5] | IC50 [3, 10] | IC50 [4, 11] | IC50 [2, 7] | IC50 [2, 9] | IC50 [2, 12]
CCCCCC1CC[C@H](Nc2ncc(C(F)(F)F)c(-c3c[nH]c4ccccc34)n2)CN1 (mixture of isomers) [Compound 241] |  |  |  | 200 to 5000 nM | 200 to 5000 nM | 200 to 5000 nM | 20 to 200 nM |  | 20 to 200 nM | 
O=C(C1CCC(Nc2ncc(C(F)(F)F)c(-c3c[nH]c4ccccc34)n2)CN1)N1CCC(O)C1 (mixture of isomers) [Compound 244] |  |  |  | 200 to 5000 nM | 200 to 5000 nM | > 5000 nM | 20 to 200 nM |  | 200 to 5000 nM | 
CC(C)C1CC[C@H](Nc2ncc(C(F)(F)F)c(-c3c[nH]c4ccccc34)n2)CN1 (mixture of isomers) [Compound 257] |  |  |  | > 5000 nM | > 5000 nM | > 5000 nM | 20 to 200 nM |  | 200 to 5000 nM | 
FC(F)(F)c1cnc(N[C@@H]2CNC[C@H](c3nnc4ccccn34)C2)nc1-c1c[nH]c2ccccc12 (relative stereo) [Compound 266] |  |  |  | 200 to 5000 nM | 200 to 5000 nM | 200 to 5000 nM | 20 to 200 nM |  |  | 20 to 200 nM
CC1(O)CCC(c2cccc3c(-c4nc(N[C@H]5CCCNC5)ncc4C(F)(F)F)c[nH]c23)CC1 (single isomer, unassigned) [Compound 192] |  |  |  | 200 to 5000 nM | 200 to 5000 nM | 200 to 5000 nM | 20 to 200 nM |  |  | 
CC1(O)CCC(c2cccc3c(-c4nc(N[C@H]5CCCNC5)ncc4C(F)(F)F)c[nH]c23)CC1 (single isomer, unassigned) [Compound 193] |  |  |  | 200 to 5000 nM | 200 to 5000 nM | 200 to 5000 nM | 20 to 200 nM |  |  | 
CC1(C)CCNC[C@@H]1Nc1ncc(C(F)(F)F)c(-c2c[nH]c3ccccc23)n1 (single isomer, unassigned) [Compound 209] |  |  |  | > 5000 nM | > 5000 nM | > 5000 nM | 200 to 5000 nM |  | 20 to 200 nM | 
CC1(C)CCNC[C@H]1Nc1ncc(C(F)(F)F)c(-c2c[nH]c3ccccc23)n1 (single isomer, unassigned) [Compound 210] |  |  |  | > 5000 nM | > 5000 nM | > 5000 nM | 200 to 5000 nM |  | 200 to 5000 nM | 
CNC(=O)C1CNCC(Nc2ncc(C(F)(F)F)c(-c3c[nH]c4ccccc34)n2)C1 (single isomer, unassigned) [Compound 252] |  |  |  | 200 to 5000 nM | > 5000 nM | > 5000 nM | 20 to 200 nM |  |  | 200 to 5000 nM
FC(F)(F)c1cnc(N[C@H]2CCCNC2)nc1-c1c[nH]c2c(-c3ccncc3)cccc12 [Compound 162] |  |  |  |  | 200 to 5000 nM | 200 to 5000 nM | 20 to 200 nM |  | < 20 nM | 
FC(F)(F)c1cnc(N[C@H]2CCCNC2)nc1-c1c[nH]c2cc(N3CCCC3)ccc12 [Compound 213, N-[(3S)-3-piperidyl]-4-(6-pyrrolidin-1-yl-1H-indol-3-yl)-5-(trifluoromethyl) pyrimidin-2-amine] |  |  |  | > 5000 nM |  | > 5000 nM |  |  | 20 to 200 nM | 
C[C@]1(O)CCN(C(=O)c2ccc3c(-c4nc(N[C@H]5CCCNC5)ncc4C(F)(F)F)c[nH]c3c2)C1 [Compound 220, [(3S)-3-hydroxy-3-methyl-pyrrolidin-1-yl]-[3-[2-[[(3S)-3-piperidyl]amino]-5-(trifluoromethyl)pyrimidin-4-yl]-1Hindol-6-yl]methanone] |  |  |  | > 5000 nM | 200 to 5000 nM | > 5000 nM | < 20 nM |  |  | 
FC(F)(F)c1cnc(N[C@H]2CCC3(CCCCC3)NC2)nc1-c1c[nH]c2ccccc12 [Compound 240] |  |  |  | 200 to 5000 nM | 200 to 5000 nM | 200 to 5000 nM | 20 to 200 nM |  |  | 
FC(F)(F)c1cnc(N[C@H]2CCCNC2)nc1-c1c[nH]c2cc(-n3ccnc3)ccc12 [Compound 248, 4-(6-imidazol-1-yl-1H-indol-3-yl)-N-[(3S)-3-piperidyl]-5-(trifluoromethyl) pyrimidin-2-amine] |  |  |  | 200 to 5000 nM | 200 to 5000 nM | 200 to 5000 nM | < 20 nM |  |  | 
CCC(=O)N[C@H]1CNC[C@@H](Nc2ncc(C(F)(F)F)c(-c3c[nH]c4c(S(C)(=O)=O)cccc34)n2)C1 [Compound 254, N-[(3R,5S)-5-[[4-(7-methylsulfonyl-1H-indol-3-yl)-5-(trifluoromethyl)pyrimidin-2-yl]amino]-3-piperidyl]propanamide] |  |  |  | > 5000 nM | > 5000 nM | > 5000 nM | 200 to 5000 nM |  |  | 
FC(F)(F)c1cnc(N[C@H]2CCCNC2)nc1-c1n[nH]c2ccccc12 [drawing 562] | 200 to 5000 nM | 200 to 5000 nM | < 20 nM |  |  |  |  | < 20 nM |  | 
C[C@]1(N)CC[C@@H](Nc2ncc(C(F)(F)F)c(-c3c[nH]c4ccccc34)n2)CC1 [reference compound] | 200 to 5000 nM | > 5000 nM | 200 to 5000 nM |  |  |  |  | 20 to 200 nM |  | 
C[C@]1(N)CC[C@@H](Nc2ncc(C(F)(F)F)c(-c3n[nH]c4ccccc34)n2)CC1 [reference compound] | 200 to 5000 nM | 200 to 5000 nM | 200 to 5000 nM |  |  |  |  | 20 to 200 nM |  | 

The next lines start with results.

IC50 [1, 6] | IC50 [3, 6] | IC50 [4, 6] | IC50 [1, 8] | IC50 [5] | IC50 [3, 10] | IC50 [4, 11] | SMILES | IC50 [2, 7] | IC50 [2, 9] | IC50 [2, 12]
200 to 5000 nM | 20 to 200 nM | < 20 nM |  |  |  |  | FC(F)(F)c1cnc(N[C@H]2CCCNC2)nc1-c1c[nH]c2ccccc12 | < 20 nM |  | 
 |  |  | > 5000 nM | > 5000 nM | > 5000 nM | 200 to 5000 nM | CC(O)c1cnc(N[C@H]2CCCNC2)nc1-c1c[nH]c2ccccc12 (mixture of isomers) [Compound 234] |  | < 20 nM | 
 |  |  | > 5000 nM | > 5000 nM | > 5000 nM | 200 to 5000 nM | CC(O)c1cnc(NC2CCCNC2)nc1-c1c[nH]c2ccccc12 (single isomer, unassigned) [Compound 238] |  | 200 to 5000 nM | 
 |  |  | > 5000 nM | > 5000 nM | > 5000 nM | 200 to 5000 nM | CC(O)c1cnc(NC2CCCNC2)nc1-c1c[nH]c2ccccc12 (single isomer, unassigned) [Compound 239] |  |  | 200 to 5000 nM
 |  |  |  | 200 to 5000 nM | 200 to 5000 nM | 20 to 200 nM | FC(F)(F)c1cnc(N[C@H]2CCCNC2)nc1-c1c[nH]c2c(Br)cccc12 [Compound 163] |  | 20 to 200 nM | 
 |  |  |  | 200 to 5000 nM | 200 to 5000 nM | 20 to 200 nM | Cn1cc(-c2cccc3c(-c4nc(N[C@H]5CCCNC5)ncc4C(F)(F)F)c[nH]c23)cn1 [Compound 164] |  | < 20 nM | 
 |  |  | 200 to 5000 nM | 200 to 5000 nM | 200 to 5000 nM | < 20 nM | CCc1cnc(N[C@H]2CCCNC2)nc1-c1c[nH]c2ncc(F)cc12 [Compound 270, (S)-5-ethyl-4-(5-fluoro-1H-pyrrolo[2,3-b]pyridin-3-yl)-N-(piperidin-3-yl)pyrimidin-2-amine] |  |  | 
 |  |  | > 5000 nM | > 5000 nM | > 5000 nM | 20 to 200 nM | CCc1cnc(N[C@H]2CCCNC2)nc1-c1c[nH]c2c(S(=O)(=O)O)cccc12 [Compound 362, 3-[5-ethyl-2-[[(3S)-3-piperidyl]amino]pyrimidin-4-yl]-1H-indole-7-sulfonic acid] |  |  | 
 |  |  | > 5000 nM | > 5000 nM | > 5000 nM | 20 to 200 nM | CCc1cnc(N[C@H]2CCCNC2)nc1-c1c[nH]c2c(S(=O)O)cccc12 [Compound 363, 3-[5-ethyl-2-[[(3S)-3-piperidyl]amino]pyrimidin-4-yl]-1H-indole-7-sulfinic acid] |  |  | 
